These results are taken from EP1914304A1 (priority 1998, dated 1999).

The target in assay [1] is HSV-1 thymidine kinase mutant TKF 105 (Leu-170 to Ile) (Human herpesvirus 1, UniProt P06478, L170I). The assay is described as follows: Kinetics of AZT phosphorylation by purified TK (preliminary experiments). Type of assay: biochemical, Herpes Simplex Virus Type 1. To be noted: preliminary experiments with purified TKF 105 TK. How it is done: Briefly, crude bacterial extract was passed three times through a 7-mL bed-volume affinity column. The column was then washed sequentially using 30 mL each of buffer A [0.1 M Tris HCl, pH 7.5/5 mM dithiothreitol (DTT)/10% glycerol], buffer B (0.1M Tris-HCl, pH 7.5/0.5 M KCl/5 mM DTT/10% glycerol), and buffer A. TK was eluted using a 60-mL linear gradient of 0-600 µM dT in buffer C (0.3 M Tris HCl, pH 7.4/50 mM KCl/10% glycerol). Active fractions were pooled and dialyzed against three changes each of 2 liters of 50 mM Tris-HCl, pH 7.4/5 mM DTT/10% glycerol. Except in the final dialysis, all the above buffers contained 50 µg/mL of aprotinin and 2 µg/mL each of pepstatin and leupeptin.
Secondly, the kinetics of AZT phosphorylation by the two mutants was determined. Briefly, reactions were carried out in a final volume of 100 µl containing 50 mM Tris-HCl (pH 7.5), 5 mM ATP. […] The amount of radioactivity adsorbed to the disc was determined by scintillation spectroscopy. Km and Vmax values were determined by using the Cleland SUBIN program (Cleland, Methods Enz. 63:103-138, 1979). The values for kcat were calculated using the equation Vmax = kcat[E]0, where [E]o = total enzyme concentration. […]

Assay [2] has as its system E. coli KY895 harboring HSV-1 TK mutant TKF 105 (Leu-170 to Ile). Kind of assay: Negative selection on AZT-selection medium. The format is cell-based. As to conditions: 0.05 µg/mL of AZT, 1.0 µg/mL of dT. The source says:
(§1) This screen is based upon the premise that mutants with increased ability to phosphorylate AZT relative to dT would be unable to form colonies on the AZT-selection medium. In particular, the product, AZT monophosphate would be further phosphorylated by the host cell's nonspecific nucleotide kinases, or possibly by the mutant TK, incorporated into bacterial DNA by host DNA polymerases, terminate DNA synthesis, and thus prevent replication of the host chromosome.
(§2) Briefly, the TK mutants were first grown as individual colonies on TK-selection medium (1.0 µg/mL of dT), and then replica plated onto AZT-selection medium (0.05 µg/mL of AZT, 1.0 µg/mL of dT). All other components in the AZT-selection medium were the same as the TK-selection medium.

The test system of assay [3] is E. coli KY895 harboring HSV-1 TK mutant TKI 208 (Leu-170 to Val). The assay is described as follows: Negative selection on AZT-selection medium. The format is cell-based. To be noted: 0.05 µg/mL of AZT, 1.0 µg/mL of dT.
From the text: as §1, §2

For assay [4], the system named is Rat C6 cells expressing TK mutant 30. Kind of assay: Rat C6 kill curves with GCV and ACV. Type of assay: cell-based. To be noted: Table VIII. The text has this:
(§3) The seven mutants were subcloned into the mammalian expression vector, pREP8D7:dualGFP. This vector contains a constitutive metallothionin promoter, which drives the expression of green flourescent protein (GFP), and an RSV LTR promoter, which stimulated expression of the TK mutants. The vector also contains a histidinol resistance gene for selection of transformants. Purified vector DNA of these constructs was used to transfect BHK tk- cells by electroporation. The transfectants were selected by resistance to histidinol and sorted using FACS analysis for GFP expression. Pools of transfectants were then assayed for sensitivity to GCV or ACV over a range of prodrug doses. […] Table VIII illustrates the IC50 values from Rat C6 kill curves with the SR11, SR26, and SR39 mutants.

Assay [5] has as its system Rat C6 cells expressing TK mutant 411. Kind of assay: Rat C6 kill curves with GCV and ACV. The format is cell-based. As to conditions: Table VIII.
From the text: as §3

Assay [6] concerns Rat C6 cells expressing TK mutant 75. Kind of assay: Rat C6 kill curves with GCV and ACV. The format is cell-based. To be noted: Table VIII.
From the text: as §3

Assay [7] deals with Rat C6 cells expressing TK mutant SR11. Kind of assay: Rat C6 kill curves with GCV and ACV. Type of assay: cell-based. As to conditions: Table VIII.
From the text: as §3

In assay [8] the test system is Rat C6 cells expressing TK mutant SR26. Kind of assay: Rat C6 kill curves with GCV and ACV. Type of assay: cell-based. To be noted: Table VIII.
From the text: as §3

The subject of assay [9] is Rat C6 cells expressing TK mutant SR39. The assay is described as follows: Rat C6 kill curves with GCV and ACV. Type of assay: cell-based. As to conditions: Table VIII.
From the text: as §3

The test system of assay [10] is Rat C6 cells expressing wild-type TK. Kind of assay: Rat C6 kill curves with GCV and ACV. Type of assay: cell-based. To be noted: Table VIII.
From the text: as §3

The test system of assay [11] is rat C6 glioblastoma cells transfected with TK mutant 30, subcutaneous tumor. Kind of assay: Mouse xenograft tumor model with prodrug treatment. Type of assay: in vivo, Nude mice. As to conditions: prodrug twice a day for 5 days from day 5; Figures 32-34. How it is done: (§4) Rat C6 glioblastoma cells were transfected with the stable expression vector pREP8D7:dualGFP as described above containing various TK mutants. […] Experiments were carried out to establish prodrug dosing levels for tumor ablation and efficacy of therapy. Nude mice (JAX Labs, Bar Harbor, Maine) were injected subcutaneously with 0.5 x10^6 transfected rat C6 cells. After 5 days, prodrugs (ACV and GCV) were administered twice a day for a further 5 days. Prodrug was given at either of two concentrations (shown as mg/kg). During this period and for an additional 6 days, tumor size was monitored by caliper measurement every other day. At the end of the period, mice were sacrificed and the tumors excised and weighed.

In assay [12] the test system is rat C6 glioblastoma cells transfected with TK mutant SR39, subcutaneous tumor. The assay is described as follows: Mouse xenograft tumor model with prodrug treatment. The format is in vivo, Nude mice. To be noted: prodrug twice a day for 5 days from day 5; Figures 32-34. How it is done: as §4
In assay [13] the target is T1, HSV-1 thymidine kinase mutant 75 (LIF-ALL library, codons 159-161 and 168-170 randomized; pET23d:75) (Human herpesvirus 1, UniProt P0DTH5).
T1 sequence (P0DTH5 1-376): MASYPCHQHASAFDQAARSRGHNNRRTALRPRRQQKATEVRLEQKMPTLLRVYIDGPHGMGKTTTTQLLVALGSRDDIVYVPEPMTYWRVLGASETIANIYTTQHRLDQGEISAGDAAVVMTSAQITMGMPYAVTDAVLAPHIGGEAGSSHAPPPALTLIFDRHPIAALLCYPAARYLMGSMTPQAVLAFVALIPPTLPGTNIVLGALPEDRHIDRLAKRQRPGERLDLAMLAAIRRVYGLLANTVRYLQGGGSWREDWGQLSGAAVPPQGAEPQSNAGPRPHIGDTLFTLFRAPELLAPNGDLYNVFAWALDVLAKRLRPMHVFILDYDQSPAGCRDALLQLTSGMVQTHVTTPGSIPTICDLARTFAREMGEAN
As to conditions: Table V.
Method: The culture is incubated at 37°C overnight. The following day the 5ml culture is used to inoculate 1L M9ZB + cabenicillin at 20µg/ml and the culture allowed to grow at 37°C to OD600 0.1. At that point IPTG is added to 0.4mM and the culture incubated a further 3 hours. The cells are chilled on ice, pelleted by centrifugation and the pellets washed once in cell wash buffer (50mM Tris, pH 7.5, 5mM EDTA, 10% sucrose) prior to freezing the pellets at -70°C. The next day the cells are resuspended in 12ml Buffer 1 (50mM Tris, pH 7.5, 10% sucrose, 2mM DTT, 5mM EDTA, 1mM PMSF) and the volume split into two 13ml Oakridge ultracentrifuge tubes. 1ml Buffer 1 containing 3mg lysozyme is added to each tube and the tubes left on ice for 1 hr. […] The cleared supernatant is then aliquoted and frozen at -70°C.
The 1ml bed volume column is prepared by passing 10ml Buffer 1 followed by 10ml Absorption Buffer (50mM Tris, pH 7.5, 10% sucrose, 2mM DTT, 25mM MgAc2, 10mM ATP) over the column. Two ml of the cleared lysate is mixed with 2 ml of Absorption Buffer and passed through a 0.2µm filter. This mix is passed over the column 3 times. The column is washed with 5ml Absorption buffer three times and the 5ml fractions collected. […] The column is reactivated by loading on 10ml High Salt Buffer (50mM Tris, pH 7.5, 10% sucrose, 2mM DTT, 0.5M KCl) and 10ml 50mM Tris, pH 7.5. The column is stored in 50mM Tris pH 7.5 + 0.004% sodium azide. The extent of purification is monitored by Coomassie stained SDS:PAGE analysis and the concentration of purified protein determined using the BioRad Reagent (Bradford Reagent).
Km and Vmax values are determined from double reciprocal plots and kcat values are calculated using the equation Vmax = kcat [Eo] where [Eo] is the total enzyme concentration. The BioRad reagent was used to determine the total enzyme concentration of purified thymidine kinase enzymes.

Each structure is given as a SMILES string.

HSV-1 thymidine kinase mutant TKF 105 (Leu-170 to Ile), sequence (P06478 whole entry L170I): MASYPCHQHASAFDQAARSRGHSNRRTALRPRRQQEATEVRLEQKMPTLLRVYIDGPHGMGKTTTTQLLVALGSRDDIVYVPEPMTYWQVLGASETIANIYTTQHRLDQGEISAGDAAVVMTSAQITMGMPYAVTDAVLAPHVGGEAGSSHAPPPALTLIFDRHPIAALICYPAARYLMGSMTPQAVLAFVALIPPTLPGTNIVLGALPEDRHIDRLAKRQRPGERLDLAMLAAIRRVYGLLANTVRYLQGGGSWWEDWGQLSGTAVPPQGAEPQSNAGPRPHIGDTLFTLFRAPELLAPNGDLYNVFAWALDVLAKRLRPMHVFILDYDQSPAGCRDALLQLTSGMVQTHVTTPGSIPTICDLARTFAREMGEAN

For `Cc1cn([C@H]2C[C@H](N=[N+]=[N-])[C@@H](CO)O2)c(=O)[nH]c1=O` [AZT, 3' azido-3' thymidine], in [1], the Km – broadly, the substrate concentration at which the rate is half of its maximum – came out at 3.7 µM. In addition, the “colony formation on AZT-selection medium” value in [2] and in [3] was “not on the AZT-selection medium” throughout.
For `Nc1nc2c(ncn2COCCO)c(=O)[nH]1` [acyclovir], the IC50 (in general, the concentration at which inhibition is half-maximal) in assay [4] is 0.26 µM; in assay [5] it was 14 µM; in assay [6], > 20 µM; in assay [7], 6 µM; in assay [8] it was 0.76 µM; in [9], 0.11 µM. The half-inhibitory concentration (IC50) in assay [10] is > 20 µM. Also, the “tumor reduction (tumor diameter, final tumor weight)” value in assay [11] and in assay [12] was “significant tumor reduction” each time. Further, the Michaelis constant (Km) in assay [13] (double reciprocal plots) turned out to be 23 µM. Further, the kcat entry in assay [13] (per active site) is “.010 s⁻¹”.
